Patent US12091425B2 (AMGEN INC., priority 2016, dated 2024)
pIC50: −log10 of the molar value.

What was measured:
[1] = target: T1, Mcl-1/Bim interaction, recombinant human Mcl-1 (171-327) (Homo sapiens, UniProt Q07820); assay: Cell free Mcl-1: Bim Affinity Assay (Mcl-1 HTRF); type: binding; conditions: cell free Mcl-1:Bim TR-FRET, recombinant human Mcl-1 (171-327)
T1 construct: made in house
Procedure, shortened: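 Compounds were mixed with the protein and a biotinylated Bim peptide spanning human residues 51-76. Plates were left overnight, then TR-FRET signal was measured. A four-parameter sigmoidal model applied to duplicate competition data gave IC50.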

[2] = tested on: OPM-2 human multiple myeloma cell line; assay: Cell Viability Assay (OPM-2 10 FBS); type: cell-based; conditions: Homo sapiens, OPM-2, 16 h, OPM-2 cells, 16 h, CellTiter-Glo
Procedure, shortened: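 IC50 from 4-parameter logistic fit of CellTiter-Glo luminescence. 3000 cells/well, 10% FBS medium, serial compound dilutions, 16 h, 37 °C/5% CO2; read 25 min post-reagent.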

T1 sequence (Q07820 171-327): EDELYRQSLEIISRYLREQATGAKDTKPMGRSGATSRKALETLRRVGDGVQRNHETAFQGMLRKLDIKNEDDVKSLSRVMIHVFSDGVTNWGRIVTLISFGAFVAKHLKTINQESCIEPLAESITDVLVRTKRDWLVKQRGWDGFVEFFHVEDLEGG

## C[C@@H]1[C@@H](C)C/C=C/[C@H](OCCN2CCOCC2)[C@@H]2CC[C@H]2CN2C[C@@]3(CCCc4cc(Cl)ccc43)COc3ccc(cc32)C(=O)NS1(=O)=O [Example 720, (1S,3′R,6′R,7′S,8′E,11′S,12′R)-6-chloro-11′,12′-dimethyl-7′-(2-(4-morpholinyl)ethoxy)-3,4-dihydro-2H,15′H-spiro[naphthalene-1,22′-[20]oxa[13]thia[1,14]diazatetracyclo[14.7.2.0^3,6.0^19,24]pentacosa [8,16,18,24]tetraen]-15′-one-13′, 13′-dioxide]
[1]
  pIC50: 9.49
[2]
  pIC50: 7.27

## C[C@@H]1[C@@H](C)C/C=C/[C@H](OCCCN2CCOCC2)[C@@H]2CC[C@H]2CN2C[C@@]3(CCCc4cc(Cl)ccc43)COc3ccc(cc32)C(=O)NS1(=O)=O [Example 721, (1S,3′R,6′R,7′S,8′E,11′S,12′R)-6-chloro-11′,12′-dimethyl-7′-(3-(4-morpholinyl)propoxy)-3,4-dihydro-2H,15′H-spiro[naphthalene-1,22′-[20]oxa[13]thia[1,14]diazatetracyclo[14.7.2.0^3,6.0^19,24]pentacosa [8,16,18,24]tetraen]-15′-one-13′, 13′-dioxide]
[1]
  pIC50: 9.27
[2]
  pIC50: 7.13

## C[C@@H]1[C@@H](C)C/C=C/[C@H](OCCC2CCOCC2)[C@@H]2CC[C@H]2CN2C[C@@]3(CCCc4cc(Cl)ccc43)COc3ccc(cc32)C(=O)NS1(=O)=O [Example 722, (1S,3′R,6′R,7′S,8′E,11′S,12′R)-6-chloro-11′,12′-dimethyl-7′-(2-(tetrahydro-2H-pyran-4-yl)ethoxy)-3,4-dihydro-2H,15′H-spiro [naphthalene-1,22′-[20]oxa[13]thia[1,14]diazatetracyclo [14.7.2.0^3,6.0^19,24]pentacosa[8,16,18,24]tetraen]-15′-one-13′, 13′-dioxide]
[1]
  pIC50: 7.92
[2]
  pIC50: 6.33

## C[C@@H]1[C@@H](C)C/C=C/[C@H](OCCN2CCCCC2)[C@@H]2CC[C@H]2CN2C[C@@]3(CCCc4cc(Cl)ccc43)COc3ccc(cc32)C(=O)NS1(=O)=O [Example 723, (1S,3′R,6′R,7′S,8′E,11′5,12′R)-6-chloro-11′,12′-dimethyl-7′-(2-(1-piperidinyl)ethoxy)-3,4-dihydro-2H,15′H-spiro[naphthalene-1,22′-[20]oxa[13]thia[1,14]diazatetracyclo[14.7.2.0^3,6.0^19,24]pentacosa [8,16,18,24]tetraen]-15′-one-13′, 13′-dioxide]
[1]
  pIC50: 9.31
[2]
  pIC50: 6.86

## C[C@@H]1[C@@H](C)C/C=C\[C@H](OCCN2CCOCC2)[C@@H]2CC[C@H]2CN2C[C@@]3(CCCc4cc(Cl)ccc43)COc3ccc(cc32)C(=O)NS1(=O)=O [Example 724, (1S,3′R,6′R,7′S,8′Z,11′S,12′R)-6-chloro-11′,12′-dimethyl-7′-(2-(4-morpholinyl)ethoxy)-3,4-dihydro-2H,15′H-spiro[naphthalene-1,22′-[20]oxa[13]thia[1,14]diazatetracyclo[14.7.2.0^3,6.0^19,24]pentacosa [8,16,18,24]tetraen]-15′-one 13′,13′-dioxide]
[1]
  pIC50: 9.31
[2]
  pIC50: 6.38

## Cc1ccc(S(=O)(=O)NCCO[C@H]2/C=C/C[C@H](C)[C@@H](C)S(=O)(=O)NC(=O)c3ccc4c(c3)N(C[C@@H]3CC[C@H]32)C[C@@]2(CCCc3cc(Cl)ccc32)CO4)cc1 [Example 726, N-(2-(((1S,3′R,6′R,7′S,8′E,11′S,12′R)-6-chloro-11′,12′-dimethyl-13′, 13′-dioxido-15′-oxo-3,4-dihydro-2H-spiro[naphthalene-1,22′-[20]oxa[13]thia[1,14]diazatetracyclo[14.7.2.0^3,6.0^19,24]pentacosa[8,16,18,24]tetraene]-7′-yl)oxy)ethyl)4-methylbenzenesulfonamide]
[1]
  pIC50: 7.91
[2]
  pIC50: 5.67

## C[C@@H]1[C@@H](C)C/C=C/[C@H](OCCN2CCOCC2=O)[C@@H]2CC[C@H]2CN2C[C@@]3(CCCc4cc(Cl)ccc43)COc3ccc(cc32)C(=O)NS1(=O)=O [Example 727, (1S,3′R,6′R,7′S,8′E,11′S,12′R)-6-chloro-11′,12′-dimethyl-7′-(2-(3-oxo-4-morpholinyl)ethoxy)-3,4-dihydro-2H,15′H-spiro[naphthalene-1,22′-[20]oxa[13]thia[1,14]diazatetracyclo[14.7.2.0^3,6.0^19,24]pentacosa [8,16,18,24]tetraen]-15′-one-13′, 13′-dioxide]
[1]
  pIC50: 9.44
[2]
  pIC50: 6.83

## C[C@@H]1[C@@H](C)C/C=C/[C@H](OCCN2CCCCC2=O)[C@@H]2CC[C@H]2CN2C[C@@]3(CCCc4cc(Cl)ccc43)COc3ccc(cc32)C(=O)NS1(=O)=O [Example 728, (1S,3′R,6′R,7′S,8′E,11′S,12′R)-6-chloro-11′,12′-dimethyl-7′-(2-(2-oxo-1-piperidinyl)ethoxy)-3,4-dihydro-2H,15′H-spiro[naphthalene-1,22′-[20]oxa[13]thia[1,14]diazatetracyclo[14.7.2.0^3,6.0^19,24]pentacosa [8,16,18,24]tetraen]-15′-one-13′, 13′-dioxide]
[1]
  pIC50: 9.36
[2]
  pIC50: 6.57

## C[C@@H]1[C@@H](C)C/C=C/[C@H](OCCN2CCOC2=O)[C@@H]2CC[C@H]2CN2C[C@@]3(CCCc4cc(Cl)ccc43)COc3ccc(cc32)C(=O)NS1(=O)=O [Example 729, (1S,3′R,6′R,7′S,8′E,11′S,12′R)-6-chloro-11′,12′-dimethyl-7′-(2-(2-oxo-1,3-oxazolidin-3-yl)ethoxy)-3,4-dihydro-2H,15′H-spiro[naphthalene-1,22′-[20]oxa[13]thia[1,14]diazatetracyclo[14.7.2.0^3,6.0^19,24]pentacosa [8,16,18,24]tetraen]-15′-one-13′, 13′-dioxide]
[1]
  pIC50: 9.51
[2]
  pIC50: 6.93

## C[C@@H]1[C@@H](C)C/C=C/[C@H](OCCN2CCCC2=O)[C@@H]2CC[C@H]2CN2C[C@@]3(CCCc4cc(Cl)ccc43)COc3ccc(cc32)C(=O)NS1(=O)=O [Example 730, (1S,3′R,6′R,7′S,8′E,11′5,12′R)-6-chloro-11′,12′-dimethyl-7′-(2-(2-oxo-1-pyrrolidinyl)ethoxy)-3,4-dihydro-2H,15′H-spiro[naphthalene-1,22′-[20]oxa[13]thia[1,14]diazatetracyclo[14.7.2.0^3,6.0^19,24]pentacosa [8,16,18,24]tetraen]-15′-one-13′, 13′-dioxide]
[1]
  pIC50: 9.51
[2]
  pIC50: 6.80

## C[C@@H]1[C@@H](C)C/C=C/[C@H](OCCN2CCC2=O)[C@@H]2CC[C@H]2CN2C[C@@]3(CCCc4cc(Cl)ccc43)COc3ccc(cc32)C(=O)NS1(=O)=O [Example 731, (1S,3′R,6′R,7′S,8′E,11′S,12′R)-6-chloro-11′,12′-dimethyl-7′-(2-(2-oxo-1-azetedinyl)ethoxy)-3,4-dihydro-2H,15′H-spiro[naphthalene-1,22′-[20]oxa[13]thia[1,14]diazatetracyclo[14.7.2.0^3,6.0^19,24]pentacosa [8,16,18,24]tetraen]-15′-one-13′, 13′-dioxide]
[1]
  pIC50: 9.52
[2]
  pIC50: 6.93

## CC(=O)NCCO[C@H]1/C=C/C[C@H](C)[C@@H](C)S(=O)(=O)NC(=O)c2ccc3c(c2)N(C[C@@H]2CC[C@H]21)C[C@@]1(CCCc2cc(Cl)ccc21)CO3 [Example 732, N-(2-(((1S,3′R,6′R,7′S,8′E,11′S,12′R)-6-chloro-11,12′-dimethyl-13′, 13′-dioxido-15′-oxo-3,4-dihydro-2H-spiro[naphthalene-1,22′-[20]oxa[13]thia[1,14]diazatetracyclo[14.7.2.0^3,6.0^19,24]pentacosa[8,16,18,24]tetraen]-7′-yl)oxy)ethyl)acetamide]
[1]
  pIC50: 9.61
[2]
  pIC50: 6.77

## CC(=O)N1CCN(CCO[C@H]2/C=C/C[C@H](C)[C@@H](C)S(=O)(=O)NC(=O)c3ccc4c(c3)N(C[C@@H]3CC[C@H]32)C[C@@]2(CCCc3cc(Cl)ccc32)CO4)CC1 [Example 733, (1S,3′R,6′R,7′S,8′E,11′S,12′R)-7′-(2-(4-acetyl-1-piperazinyl)ethoxy)-6-chloro-11′,12′-dimethyl-3,4-dihydro-2H,15′H-spiro[naphthalene-1,22′-[20]oxa[13]thia[1,14]diazatetracyclo [14.7.2.0^3,6.0^19,24]pentacosa[8,16,18,24]tetraen]-15′-one-13′, 13′-dioxide]
[1]
  pIC50: 9.55
[2]
  pIC50: 7.16

## C[C@@H]1[C@@H](C)C/C=C/[C@H](OCCN2CCN(S(C)(=O)=O)CC2)[C@@H]2CC[C@H]2CN2C[C@@]3(CCCc4cc(Cl)ccc43)COc3ccc(cc32)C(=O)NS1(=O)=O [Example 734]
[1]
  pIC50: 8.95
[2]
  pIC50: 6.87

## C[C@@H]1[C@@H](C)C/C=C/[C@H](OCCNS(C)(=O)=O)[C@@H]2CC[C@H]2CN2C[C@@]3(CCCc4cc(Cl)ccc43)COc3ccc(cc32)C(=O)NS1(=O)=O [Example 735, N-(2-(((1S,3′R,6′R,7′S,8′E,11′S,12′R)-6-chloro-11′,12′-dimethyl-13′, 13′-dioxido-15′-oxo-3,4-dihydro-2H-spiro[naphthalene-1,22′-[20]oxa[13]thia[1,14]diazatetracyclo[14.7.2.0^3,6.0^19,24]pentacosa[8,16,18,24]tetraen]-7′-yl)oxy)ethyl)Methanesulfonamide]
[1]
  pIC50: 9.17
[2]
  pIC50: 6.69

## CCOC(=O)NCCO[C@H]1/C=C/C[C@H](C)[C@@H](C)S(=O)(=O)NC(=O)c2ccc3c(c2)N(C[C@@H]2CC[C@H]21)C[C@@]1(CCCc2cc(Cl)ccc21)CO3 [Example 736, ethyl (2-(((1S,3′R,6′R,7′S,8′E,11′S,12′R)-6-chloro-11′,12′-dimethyl-13′, 13′-dioxido-15′-oxo-3,4-dihydro-2H-spiro[naphthalene-1,22′-[20]oxa[13]thia[1,14]diazatetracyclo[14.7.2.0^3,6.0^19,24]pentacosa[8,16,18,24]tetraen]-7′-yl)oxy)ethyl)carbamate]
[1]
  pIC50: 9.05
[2]
  pIC50: 6.72
